Assay results taken from ChEMBL document CHEMBL4834420, “Projected Dose Optimization of Amino- and Hydroxypyrrolidine Purine PI3Kδ Immunomodulators” (J Med Chem, 2021).

Tests used:
[1] = target: PI3-kinase p110-delta/p85-alpha (Homo sapiens, UniProt O00329); assay: Inhibition of N-terminal His6-tagged recombinant full length human p110delta/untagged recombinant full length human p85alpha expressed in baculovirus infected Sf21 insect cells using PIP2 as substrate preincubated for 15 mins followed by substrate addition and measured after 1 hr by HTRF assay
PI3-kinase p110-delta/p85-alpha, sequence (P27986 whole entry, one chain of several, canonical isoform): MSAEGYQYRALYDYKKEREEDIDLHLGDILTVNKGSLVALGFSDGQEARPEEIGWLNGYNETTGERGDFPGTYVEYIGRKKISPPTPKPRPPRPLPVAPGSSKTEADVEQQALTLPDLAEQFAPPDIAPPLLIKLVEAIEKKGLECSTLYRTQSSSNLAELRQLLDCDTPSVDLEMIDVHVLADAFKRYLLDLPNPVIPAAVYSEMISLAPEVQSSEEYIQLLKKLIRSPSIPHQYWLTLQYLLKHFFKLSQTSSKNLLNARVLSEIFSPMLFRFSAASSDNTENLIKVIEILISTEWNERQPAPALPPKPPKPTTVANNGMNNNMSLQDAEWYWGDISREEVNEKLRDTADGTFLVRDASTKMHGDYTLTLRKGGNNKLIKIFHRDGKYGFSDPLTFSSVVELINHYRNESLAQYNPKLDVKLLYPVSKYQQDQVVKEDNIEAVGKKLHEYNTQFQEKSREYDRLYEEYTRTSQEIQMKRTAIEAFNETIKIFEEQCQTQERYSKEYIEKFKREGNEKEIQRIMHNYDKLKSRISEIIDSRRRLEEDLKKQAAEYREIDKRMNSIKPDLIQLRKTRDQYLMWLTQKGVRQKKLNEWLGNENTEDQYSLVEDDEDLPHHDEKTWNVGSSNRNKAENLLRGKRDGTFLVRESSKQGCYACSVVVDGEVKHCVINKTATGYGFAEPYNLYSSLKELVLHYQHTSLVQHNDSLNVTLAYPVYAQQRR

[2] = target: T1, Phosphatidylinositol 4,5-bisphosphate 3-kinase catalytic subunit delta isoform (Homo sapiens, UniProt O00329); assay: Inhibition of PI3Kdelta in human Ramos cells assessed as reduction in anti-IgM-antibody-induced phosphorylation of AKT at Ser473 residue preincubated for 20 mins followed by anti-IgM antibody stimulation and measured after 30 mins by alphascreen assay; format: cell-based
T1 sequence (O00329 whole entry): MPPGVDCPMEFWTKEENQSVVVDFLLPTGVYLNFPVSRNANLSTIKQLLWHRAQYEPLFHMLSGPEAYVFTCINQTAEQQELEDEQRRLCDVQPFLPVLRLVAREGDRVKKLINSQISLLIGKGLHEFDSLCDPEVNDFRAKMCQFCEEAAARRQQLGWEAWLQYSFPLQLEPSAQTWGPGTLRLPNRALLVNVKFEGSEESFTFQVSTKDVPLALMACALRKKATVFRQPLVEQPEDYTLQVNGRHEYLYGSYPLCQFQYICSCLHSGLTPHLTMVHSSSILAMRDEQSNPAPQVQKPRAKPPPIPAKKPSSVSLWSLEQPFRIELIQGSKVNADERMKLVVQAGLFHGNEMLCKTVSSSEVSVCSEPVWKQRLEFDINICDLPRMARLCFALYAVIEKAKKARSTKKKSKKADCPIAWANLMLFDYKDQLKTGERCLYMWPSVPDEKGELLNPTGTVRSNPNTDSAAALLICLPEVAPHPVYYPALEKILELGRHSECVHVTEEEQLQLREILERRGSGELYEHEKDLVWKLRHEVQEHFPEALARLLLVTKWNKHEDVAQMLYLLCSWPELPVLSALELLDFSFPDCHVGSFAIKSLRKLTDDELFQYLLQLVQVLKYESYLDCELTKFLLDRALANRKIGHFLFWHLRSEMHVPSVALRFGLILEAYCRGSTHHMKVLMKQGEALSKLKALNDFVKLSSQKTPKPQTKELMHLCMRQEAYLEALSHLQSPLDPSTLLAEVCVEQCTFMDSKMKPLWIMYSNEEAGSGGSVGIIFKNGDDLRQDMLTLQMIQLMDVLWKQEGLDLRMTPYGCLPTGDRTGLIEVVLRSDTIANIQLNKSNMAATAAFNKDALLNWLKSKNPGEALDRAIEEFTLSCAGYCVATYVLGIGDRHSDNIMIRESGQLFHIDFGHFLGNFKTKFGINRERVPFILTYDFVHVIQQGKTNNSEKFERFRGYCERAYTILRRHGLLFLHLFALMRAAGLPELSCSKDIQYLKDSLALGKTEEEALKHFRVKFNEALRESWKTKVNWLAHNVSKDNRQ

[3] = Inhibition of adenosine transporter in human HeLa cells assessed as reduction in [3H]adenosine uptake preincubated for 30 mins followed by [3H]adenosine addition and measured after 60 mins; format: cell-based
[4] = Lipophilicity, log D of the compound by HPLC analysis; format: physicochemical
[5] = Volume of distribution in Wistar Han rat; format: ADME; conditions: in vivo
[6] = Unbound volume of distribution in Wistar Han rat; format: ADME; conditions: in vivo
[7] = Half-life in Wistar Han rat; format: ADME; conditions: in vivo
[8] = Plasma clearance in Wistar Han rat at 0.05 mg/kg, iv or 1 mg/kg, po; format: ADME, organism-based
[9] = Intrinsic clearance in Wistar Han rat at 0.05 mg/kg, iv or 1 mg/kg, po; format: ADME, organism-based; conditions: in vivo
[10] = Plasma clearance in Wistar Han rat at 0.5 mg/kg, iv or 1 mg/kg, po; format: ADME, organism-based
[11] = Intrinsic clearance in Wistar Han rat at 0.5 mg/kg, iv or 1 mg/kg, po; format: ADME, organism-based; conditions: in vivo
[12] = Oral bioavailability in Wistar Han rat; format: ADME, organism-based; conditions: in vivo
[13] = Plasma clearance in Beagle dog at 0.05 mg/kg; format: ADME, organism-based, Canis lupus familiaris
[14] = Intrinsic clearance in Beagle dog at 0.05 mg/kg; format: ADME, organism-based, Canis lupus familiaris; conditions: in vivo
[15] = Volume of distribution in Beagle dog; format: ADME, Canis lupus familiaris; conditions: in vivo
[16] = Unbound volume of distribution in Beagle dog; format: ADME, Canis lupus familiaris; conditions: in vivo
[17] = Half-life in Beagle dog; format: ADME, Canis lupus familiaris; conditions: in vivo
[18] = target: T1, Phosphatidylinositol 4,5-bisphosphate 3-kinase catalytic subunit delta isoform; assay: Inhibition of PI3Kdelta in human whole blood assessed as reduction in anti-CD79b antibody-induced CD69 expression preincubated for 60 mins followed by anti-CD79b antibody stimulation and measured after 3 hrs by FACS analysis; format: tissue-based
[19] = Apparent permeability in pig LLC-PK1 cells; format: ADME, cell-based, Sus scrofa
[20] = Plasma clearance in Beagle dog at 0.25 mg/kg, iv or 0.5 mg/kg, po; format: ADME, organism-based, Canis lupus familiaris
[21] = Intrinsic clearance in Beagle dog at 0.25 mg/kg, iv or 0.5 mg/kg, po; format: ADME, organism-based, Canis lupus familiaris; conditions: in vivo
[22] = Oral bioavailability in Beagle dog; format: ADME, organism-based, Canis lupus familiaris; conditions: in vivo

Structure (SMILES)	IC50 [1]	IC50 [2]	IC50 [3]	logD [4]	Vd [5]	Vdu [6]	half-life [7]	clearance [8]	CL [9]	clearance [10]	CL [11]	bioavailability [12]	clearance [13]	CL [14]	Vd [15]	Vdu [16]	half-life [17]	also measured
CCn1c(-c2ccc(C(F)(F)F)nc2)nc2c(O[C@H]3CCN(C(=O)C4CC4)C3)ncnc21	5.1 nM	49 nM	5600 nM	2.3	0.7 L/kg	8.3 L/kg	0.7 h	15 mL/min/kg	240 mL/min/kg	–	–	–	–	–	–	–	–	–
CCn1c(-c2cnc(C)nc2)nc2c(O[C@H]3CCN(C(=O)C4CCOCC4)C3)ncnc21	13 nM	390 nM	> 10000 nM	0.8	0.8 L/kg	1.5 L/kg	1.4 h	–	–	14 mL/min/kg	37 mL/min/kg	31%	4.3 mL/min/kg	7 mL/min/kg	0.8 L/kg	1.1 L/kg	1.9 h	–
CCn1c(-c2cnc(C)nc2)nc2c(N[C@H]3CCN(C(=O)c4cocn4)C3)ncnc21	–	82 nM	–	0.6	0.6 L/kg	6.1 L/kg	0.7 h	13 mL/min/kg	150 mL/min/kg	–	–	–	–	–	–	–	–	–
CCn1c(-c2cnc(C)nc2)nc2c(O[C@H]3CCN(C(=O)N4CC(OC)C4)C3)ncnc21	3.3 nM	63 nM	8700 nM	0.9	0.4 L/kg	2.1 L/kg	1.7 h	–	–	4 mL/min/kg	25 mL/min/kg	75%	12 mL/min/kg	32 mL/min/kg	1.4 L/kg	2.3 L/kg	1.2 h	–
CCn1c(-c2cnc(C)nc2)nc2c(O[C@H]3CCN(C(=O)C4CCOC4)C3)ncnc21 (stereo not given in full)	6 nM	–	> 10000 nM	0.7	0.5 L/kg	0.9 L/kg	1.4 h	6.2 mL/min/kg	12 mL/min/kg	–	–	–	3 mL/min/kg	4.2 mL/min/kg	0.7 L/kg	0.9 L/kg	3.8 h	–
CCn1c(-c2ccc(C(F)(F)F)nc2)nc2c(N[C@H]3CCN(C(=O)C4CC4)C3)ncnc21	1.7 nM	12 nM	1200 nM	2	0.4 L/kg	8.8 L/kg	1.2 h	–	–	4.7 mL/min/kg	104 mL/min/kg	36%	5.6 mL/min/kg	22 mL/min/kg	1.2 L/kg	3.9 L/kg	3.1 h	–
CCn1c(-c2cnc(C)nc2)nc2c(O[C@H]3CCN(C(=O)C4CC(F)(F)C4)C3)ncnc21	3.8 nM	32 nM	9900 nM	1.5	0.5 L/kg	3 L/kg	1.4 h	6 mL/min/kg	28 mL/min/kg	–	–	–	23 mL/min/kg	170 mL/min/kg	1.4 L/kg	2.5 L/kg	0.8 h	IC50 [18]: 84 nM
CCC(=O)N1CC[C@H](Oc2ncnc3c2nc(-c2cnc(C)nc2)n3CC)C1	–	–	> 10000 nM	0.8	1.2 L/kg	2.4 L/kg	1.2 h	12 mL/min/kg	31 mL/min/kg	–	–	–	6.1 mL/min/kg	11 mL/min/kg	1.9 L/kg	2.7 L/kg	3.9 h	Papp [19]: 21 ×10⁻⁶ cm/s
CCn1c(-c2cnc(C)nc2)nc2c(N[C@H]3CCN(C(=O)C4CC(F)(F)C4)C3)ncnc21	2.2 nM	13 nM	3800 nM	1.5	0.9 L/kg	18 L/kg	0.4 h	26 mL/min/kg	760 mL/min/kg	–	–	–	–	–	–	–	–	–
CCn1c(-c2cnc(C)nc2)nc2c(N[C@H]3CCN(C(=O)C4CCOC4)C3)ncnc21 (stereo not given in full)	1.6 nM	–	> 10000 nM	0.6	0.7 L/kg	2.3 L/kg	0.6 h	18 mL/min/kg	74 mL/min/kg	–	–	–	–	–	–	–	–	–
CCn1c(-c2cnc(C)nc2)nc2c(O[C@H]3CCN(C(=O)[C@H]4C[C@@H](OC)C4)C3)ncnc21	2.8 nM	110 nM	> 10000 nM	1	0.5 L/kg	2.5 L/kg	1.8 h	–	–	3.8 mL/min/kg	19 mL/min/kg	37%	–	–	0.6 L/kg	0.9 L/kg	3.6 h	IC50 [18]: 75 nM; Papp [19]: 18 ×10⁻⁶ cm/s; clearance [20]: 2.1 mL/min/kg; CL [21]: 3.3 mL/min/kg; bioavailability [22]: 80%
CCn1c(-c2cnc(C)nc2)nc2c(N[C@H]3CCN(C(=O)N4CC(OC)C4)C3)ncnc21	0.7 nM	67 nM	4700 nM	0.7	0.7 L/kg	4.8 L/kg	4 h	–	–	11 mL/min/kg	93 mL/min/kg	16%	–	–	1.4 L/kg	1.9 L/kg	1.7 h	IC50 [18]: 9 nM; Papp [19]: 10 ×10⁻⁶ cm/s; clearance [20]: 9 mL/min/kg; CL [21]: 19 mL/min/kg; bioavailability [22]: 69%
CCC(=O)N1CC[C@H](Nc2ncnc3c2nc(-c2cnc(C)nc2)n3CC)C1	1.9 nM	42 nM	> 10000 nM	0.7	1 L/kg	3.6 L/kg	1.5 h	–	–	21 mL/min/kg	100 mL/min/kg	61%	5.5 mL/min/kg	9 mL/min/kg	1.5 L/kg	1.9 L/kg	2.7 h	Papp [19]: 21 ×10⁻⁶ cm/s
CCn1c(-c2cnc(C)nc2)nc2c(O[C@H]3CCN(C(=O)C4CCC4)C3)ncnc21	1.2 nM	14 nM	7700 nM	1.3	0.6 L/kg	4 L/kg	0.3 h	28 mL/min/kg	270 mL/min/kg	–	–	–	12 mL/min/kg	27 mL/min/kg	1 L/kg	1.4 L/kg	1.1 h	–
